≈ marks a conversion by molar mass, not a printed value.
How the values were obtained:
[1] = tested on: Artemia; assay: Toxicity in brine shrimp; format: organism-based; conditions: in vivo
[2] = Cytotoxicity against human 9KB cells; format: functional; conditions: read-out: ED50 (the source's name)
[3] = tested on: Agrobacterium tumefaciens; assay: Antitumor activity against Agrobacterium tumefaciens-induced crown gall tumors assessed as inhibition of tumor development in potato by crown gall tumor potato disk test; format: functional; parameters: scale not given: the % may be the effect or the level left
[4] = Cytotoxicity against mouse 9PS cells; format: functional; conditions: read-out: ED50 (the source's name)

C=C(C)[C@H]1O[C@@H]1c1c(OC)ccc2ccc(=O)oc12 [PHEBALOSIN]
LC50 [1]: 47 ppm
EC50 [2]: > 20 µg/mL
Activity [3]: -70%
EC50 [4]: 27 µg/mL (≈ 105 µM)
